Where two headings read alike, the source gives them in different places.
Columns and labels:
[1] = into a lateral ventricle, rat; cited from earlier work
mice = experiment: Locomotor activity of mice after instillation of ophthalmic medicament to the eye (Automex, total activity ratio per hour vs saline); assay type: in vivo, mouse (ICR male); conditions: for time when the mice started to move / total activity ratio / locomotor activity (in words) / Total Activity ratio per hour / pain or itch in the eyes as cause of the sleep inhibition: instilled to mouse eye; for sleep inducing or inhibiting activity (in words): by instillation to mouse eye; for Total Activity ratio per hour: 19:30-20:30
Experimental: Three ICR male mice were put in a cage and bred under the condition of a day-and-night cycle of every 12 hours (the daytime: from 7:35 to 19:35; the nighttime: from 19:35 to 7:35) for an experiment.
In this manner, the mice were habituated to the instillation by administering the saline every day. After the same activity pattern appeared for two days continuously, an ophthalmic medicament containing a desired sleep adjusting substance was instilled for consecutive two days. The ophthalmic medicament was prepared by dissolving the sleep adjusting substance in saline. […] The locomotor activity (unit: count) of mice was measured every 10 minutes by using a measuring device for the locomotor activity of an experimental animal "Automex" (produced by Tokai Irika). The locomotor activity was measured by putting a mouse on the measuring device. Every time any of the mice moved, a counter of the device cumulated the number of the movements. Thus, the larger cumulated number reflected more energetic activity. Such a measurement was conducted twice (for two days). An average value of the locomotor activity at each time was calculated and the results were plotted to obtain a graph, with time as the abscissas and the average locomotor activity as the ordinates. This graph depicts an activity pattern of the mice as a function of an administration of the ophthalmic medicament. A total of the locomotor activity (i.e., an area below the curve in the graph) per one hour between 19: 30 which is 30 minutes after the administration and 20:30 was calculated. In the same manner, as for the mice with the administration of saline alone, a total locomotor activity per the same one hour period as above was calculated. The ratio (%) of the calculated total locomotor activity per one hour of the mice with saline alone to that of the mice with the administration of the ophthalmic medicament (hereinafter called the "total activity ratio") was obtained. The mice whose activity patterns were not stable during the habituation to the administration of saline were not used in the following examples.

[2] = cited from earlier work; for sleep effect: species and route not stated
[3] = cited from earlier work
neurons = conditions: cited from earlier work
[4] = cited from earlier work; remark: listed apart in the source
human = conditions: cited from earlier work
animal = conditions: in an animal; cited from earlier work
[5] = into a cerebral ventricle, rabbit; cited from earlier work
[6] = injected into an eyeball; axonal flow; cited from earlier work
[7] = administered into a cerebral ventricle

Nc1ncnc2c1ncn2[C@@H]1O[C@H](CO)[C@@H](O)[C@H]1O [Adenosine, adenosine]
sleep effect [1]: induce non-REM sleep

CCCCC[C@H](O)/C=C/[C@H]1C(=O)C[C@H](O)[C@@H]1C/C=C\CCCC(=O)O [PGD2, prostaglandin D2]
time when the mice started to move (mice; 100 μM): shifted backward
total activity ratio (mice; 100 μM, vs saline control): 78%
sleep effect [2]: strong sleep inducing substance

CCCCC[C@H](O)/C=C/[C@H]1[C@H](O)CC(=O)[C@@H]1C/C=C\CCCC(=O)O [PGE2, prostaglandin E2]
sleep effect [2]: inhibits sleep
sleep effect ([2]; listed as prostaglandin E2): sleep inhibiting activity

C1CCNCC1 [Piperidine, piperidine]
total activity ratio (mice; 100 μM, vs saline control): 72%
sleep effect [2]: sleep inducing activity

O=c1cc[nH]c(=O)[nH]1 [Uracil, uracil, reference compound]
locomotor activity (in words) (mice; 100 μM): did not decrease

O=c1ccn([C@@H]2O[C@H](CO)[C@@H](O)[C@H]2O)c(=O)[nH]1 [Uridine, uridine]
sleep inducing or inhibiting activity (in words) (mice; 100 μM): showed a sleep inducing activity
Total Activity ratio per hour (mice; 10 μM): 63 % of control
Total Activity ratio per hour (mice; 30 μM): 57 % of control
locomotor activity (in words) (mice; 100 μM): remarkably decreased
time when the mice started to move (mice; 100 μM): shifted backward
Total Activity ratio per hour (mice; 100 μM): 53 % of control
sleep effect ([3]; injection of only 10 pmole into a cerebral ventricle): induces non-REM sleep
excitation of the neurons (neurons): induces or inhibits excitation of the neurons

Nc1ccn([C@@H]2O[C@H](CO)[C@@H](O)[C@H]2O)c(=O)n1 [cytidine]
sleep inducing or inhibiting activity (in words) (mice; 100 μM): can inhibit sleep
locomotor activity (in words) (mice; 100 μM): completely disappeared temporarily after the instillation
pain or itch in the eyes as cause of the sleep inhibition (mice; 100 μM): not caused by a pain or an itch in the eyes
time when the mice started to move (mice; 100 μM): advanced
total activity ratio (mice; 100 μM, vs saline control): 127%
arousal hours [3, 7]: increase arousal hours
total sleep hours [3, 7]: decrease total sleep hours

N[C@@H](Cc1c[nH]c2ccccc12)C(=O)O [tryptophan]
effectiveness of oral administration [4]: somewhat effective

arginine vasotocin [AVT]
sleep effect (human; in a human): REM sleep
amount of serotonin in the brain ([2]; mechanism of sleep induction): increasing the amount of serotonin in the brain
sleep effect (animal): induces non-REM sleep

delta-sleep-inducing peptide [DSIP]
sleep inducing or inhibiting activity (in words) (mice; 100 μM): exerted a sleep inhibiting activity
pain or itch in the eyes as cause of the sleep inhibition (mice; 100 μM): certainly not due to any pain or itch in the eyes
total activity ratio (mice; 100 μM in saline containing 0.1% bovine serum albumin): 130%
sleep effect [5]: induce sleep
anti-stress activity (human; administered to a human): anti-stress activity such as causing sleep inhibition

horseradish peroxidase: an enzyme with a molecular weight of about 40,000, frequently used as a tracer
uptake by ganglion cells and transport to the suprachiasmatic nucleus [6]: uptaken by the ganglion cells, and then transported to the suprachiasmatic nucleus through the axonal flow
